Test results published in ChEMBL document CHEMBL1132047, “Nonpeptide oxytocin antagonists: analogs of L-371,257 with improved potency” (Bioorg Med Chem Lett, 1999).

What was measured:
[1] = Compound was evaluated in vivo in rat for the plasma half-life at a iv dose of 3 mg/kg and oral dose of 10 mg/kg and experiment by using concentration vs time curve; type: ADME, organism-based
[2] = target: T1, Oxytocin receptor (Rattus norvegicus, UniProt P70536); assay: Binding affinity for rat uterine oxytocin receptor (rOTr)
T1 sequence (P70536 whole entry): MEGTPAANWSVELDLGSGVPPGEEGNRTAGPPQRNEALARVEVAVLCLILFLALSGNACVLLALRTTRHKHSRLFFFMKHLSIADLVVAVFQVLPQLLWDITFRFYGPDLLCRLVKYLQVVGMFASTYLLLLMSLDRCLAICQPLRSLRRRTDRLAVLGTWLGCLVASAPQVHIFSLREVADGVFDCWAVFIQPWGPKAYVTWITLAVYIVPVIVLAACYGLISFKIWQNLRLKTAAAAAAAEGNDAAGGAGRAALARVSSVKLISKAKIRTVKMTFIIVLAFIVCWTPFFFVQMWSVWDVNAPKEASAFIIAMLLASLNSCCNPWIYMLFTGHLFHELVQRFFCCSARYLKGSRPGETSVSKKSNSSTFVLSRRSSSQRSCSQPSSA

[3] = Oral bioavailability in rat (dose 20 mg/kg); type: ADME, organism-based; conditions: in vivo
[4] = tested on: Rattus norvegicus; assay: Compound tested in vivo for antagonist potency against oxytocin (OT)-induced in rats by id administration; type: functional
[5] = target: T2, Oxytocin receptor (Homo sapiens, UniProt P30559); assay: Binding affinity for human oxytocin receptor
T2 sequence (P30559 whole entry): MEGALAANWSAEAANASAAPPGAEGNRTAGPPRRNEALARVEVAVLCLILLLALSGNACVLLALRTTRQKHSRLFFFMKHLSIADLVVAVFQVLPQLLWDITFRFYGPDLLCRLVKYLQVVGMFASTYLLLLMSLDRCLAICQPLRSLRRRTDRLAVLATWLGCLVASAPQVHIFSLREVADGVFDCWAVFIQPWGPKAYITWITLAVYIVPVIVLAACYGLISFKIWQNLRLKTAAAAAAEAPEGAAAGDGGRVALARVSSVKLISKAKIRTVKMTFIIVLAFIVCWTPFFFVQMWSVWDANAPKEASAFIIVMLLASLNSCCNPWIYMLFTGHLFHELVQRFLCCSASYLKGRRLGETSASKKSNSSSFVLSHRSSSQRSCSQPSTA

[6] = tested on: Rattus norvegicus; assay: Compound tested in vivo for antagonist potency against oxytocin (OT)-induced in rats by iv administration; type: functional
[7] = target: Vasopressin V1a receptor (Homo sapiens, UniProt P37288); assay: Binding affinity towards human Vasopressin V1a receptor by using functional assay
Vasopressin V1a receptor (Homo sapiens, UniProt P37288), sequence (P37288 whole entry): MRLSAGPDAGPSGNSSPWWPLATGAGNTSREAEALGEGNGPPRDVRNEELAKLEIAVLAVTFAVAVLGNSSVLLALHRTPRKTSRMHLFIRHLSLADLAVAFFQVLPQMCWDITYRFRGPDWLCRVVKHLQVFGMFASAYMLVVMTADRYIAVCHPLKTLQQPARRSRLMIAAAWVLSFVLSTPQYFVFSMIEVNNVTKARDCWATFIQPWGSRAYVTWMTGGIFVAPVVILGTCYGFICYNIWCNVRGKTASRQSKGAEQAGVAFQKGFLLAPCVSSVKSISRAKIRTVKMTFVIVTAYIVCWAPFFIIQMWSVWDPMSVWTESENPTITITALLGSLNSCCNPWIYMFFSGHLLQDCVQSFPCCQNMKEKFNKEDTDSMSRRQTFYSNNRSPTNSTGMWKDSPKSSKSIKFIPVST

[8] = target: Vasopressin V1a receptor (Rattus norvegicus, UniProt P30560); assay: Binding affinity towards rat liver Vasopressin V1a receptor by using functional assay
Vasopressin V1a receptor (Rattus norvegicus, UniProt P30560), sequence (P30560 whole entry): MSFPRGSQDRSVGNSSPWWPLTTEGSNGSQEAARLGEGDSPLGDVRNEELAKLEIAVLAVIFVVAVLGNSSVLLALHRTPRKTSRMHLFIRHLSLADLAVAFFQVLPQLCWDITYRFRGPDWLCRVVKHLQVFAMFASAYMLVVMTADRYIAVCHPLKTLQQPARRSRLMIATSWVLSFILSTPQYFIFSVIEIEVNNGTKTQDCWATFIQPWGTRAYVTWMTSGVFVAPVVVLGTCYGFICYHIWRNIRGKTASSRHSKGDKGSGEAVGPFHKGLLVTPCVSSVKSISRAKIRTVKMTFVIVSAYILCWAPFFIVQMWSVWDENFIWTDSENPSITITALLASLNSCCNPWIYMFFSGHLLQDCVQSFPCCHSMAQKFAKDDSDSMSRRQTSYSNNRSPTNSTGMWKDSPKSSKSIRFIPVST

[9] = target: Vasopressin V2 receptor (Rattus norvegicus, UniProt Q00788); assay: Binding affinity towards rat kidney Vasopressin V2 receptor by using functional assay
Vasopressin V2 receptor (Rattus norvegicus, UniProt Q00788), sequence (Q00788 whole entry): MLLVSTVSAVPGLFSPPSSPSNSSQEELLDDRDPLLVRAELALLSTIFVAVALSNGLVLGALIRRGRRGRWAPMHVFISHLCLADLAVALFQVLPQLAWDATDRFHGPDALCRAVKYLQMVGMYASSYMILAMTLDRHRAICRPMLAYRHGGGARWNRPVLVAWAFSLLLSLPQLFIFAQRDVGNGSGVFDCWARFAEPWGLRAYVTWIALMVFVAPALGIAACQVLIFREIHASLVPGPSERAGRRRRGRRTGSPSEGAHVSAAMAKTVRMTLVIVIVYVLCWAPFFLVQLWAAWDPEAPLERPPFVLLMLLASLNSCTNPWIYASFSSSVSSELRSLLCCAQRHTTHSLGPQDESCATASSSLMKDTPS

[10] = target: Vasopressin V2 receptor (Homo sapiens, UniProt P30518); assay: Binding affinity towards cloned human Vasopressin V2 receptor by using functional assay
Vasopressin V2 receptor (Homo sapiens, UniProt P30518), sequence (P30518 whole entry): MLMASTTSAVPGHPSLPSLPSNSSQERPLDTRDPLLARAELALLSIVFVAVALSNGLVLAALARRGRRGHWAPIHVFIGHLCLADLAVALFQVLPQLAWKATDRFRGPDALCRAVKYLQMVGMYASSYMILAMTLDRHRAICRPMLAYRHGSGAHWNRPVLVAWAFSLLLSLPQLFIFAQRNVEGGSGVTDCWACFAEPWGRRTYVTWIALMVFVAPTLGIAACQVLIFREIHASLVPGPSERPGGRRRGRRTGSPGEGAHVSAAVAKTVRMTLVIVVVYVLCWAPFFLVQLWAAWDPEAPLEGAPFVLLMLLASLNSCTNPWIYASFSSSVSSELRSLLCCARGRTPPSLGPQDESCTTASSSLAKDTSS

[11] = Compound was evaluated for pharmacokinetic property in rats after an oral dose of 10 mg/kg and the value was reported as oral bioavailability (F); type: ADME, organism-based; conditions: rat, in vivo
[12] = Compound was evaluated in vivo in rat for the plasma half-life at a oral dose of 20 mg/kg experiment by using concentration vs time curve; type: ADME, organism-based; set-up: dose 20 mg/kg, route oral
[13] = tested on: Rattus norvegicus; assay: Compound tested in vivo for antagonist potency against oxytocin (OT)-induced contractions in rat uterus by iv administration; type: functional

In the case of `O=C(Cc1ccc(OC2CCN(CC3CC3)CC2)cc1OCC(F)(F)F)N1CCC(N2C(=O)OCc3ccccc32)CC1`, the half-life [1] is reported as 1.7 h, the Ki [2] is reported as 1.2 nM and the bioavailability [3] is reported as 45%. For the same molecule, the AD50 [4] was 22 mg/kg, the Ki [5] was 1 nM and the AD50 [6] was 0.69 mg/kg.

`CC(=O)N1CCC(Oc2ccc(CC(=O)N3CCC(N4C(=O)OCc5ccccc54)CC3)c(OCC(F)(F)F)c2)CC1` gave a Ki [7] of 740 nM, a half-life [1] of 0.27 h and a Ki [8] of 2 nM. For the same molecule, the Ki [2] was 0.71 nM, the bioavailability [3] was 19% and the AD50 [4] was 0.64 mg/kg. It also gave a Ki [9] of 150 nM, a Ki [5] of 1.4 nM and an AD50 [6] of 0.06 mg/kg. For the same molecule, the Ki [10] was 130 nM and the bioavailability [11] was 19%.

For `CC(=O)N1CCC(Oc2ccc(CC(=O)N3CCC(N4C(=O)OCc5ccccc54)CC3)c(OC(F)(F)F)c2)CC1`, the Ki [2] was 2.8 nM, the Ki [5] was 2.4 nM and the AD50 [6] was 0.27 mg/kg.

Molecule `COc1cc(OC2CCN(C(C)=O)CC2)ccc1C(=O)N1CCC(N2C(=O)OCc3ccccc32)CC1` has a half-life [12] of 0.5 h, an AD50 [4] of 2.5 mg/kg and an AD50 [13] of 0.55 mg/kg.

For `O=C(Cc1ccccc1OCC(F)(F)F)N1CCC(N2C(=O)OCc3ccccc32)CC1`, the Ki [2] was 6 nM, the AD50 [4] was >10 mg/kg and the Ki [5] was 4.5 nM. It also gave an AD50 [6] of 1 mg/kg.

`O=C(Cc1ccc(N2CCOCC2)cc1OCC(F)(F)F)N1CCC(N2C(=O)OCc3ccccc32)CC1` gave a Ki [2] of 0.6 nM, an AD50 [4] of 0.97 mg/kg and a Ki [5] of 0.86 nM. It also gave an AD50 [6] of 0.077 mg/kg.

With `CC(=O)N1CCC(Oc2ccc(CC(=O)N3CCC(N4C(=O)OCc5ccccc54)CC3)cc2)CC1` the Ki [2] was 1600 nM and the Ki [5] was 390 nM.

Work on `COc1ccc(CCC(=O)N2CCC(N3C(=O)OCc4ccccc43)CC2)c(OC)c1` yielded a Ki [2] of 520 nM and a Ki [5] of 240 nM.

`COc1ccc(CC(=O)N2CCC(N3C(=O)OCc4ccccc43)CC2)c(OC)c1` gave a Ki [2] of 37 nM and a Ki [5] of 33 nM.

`O=C(Cc1ccc(OCCN2CCOCC2)cc1OCC(F)(F)F)N1CCC(N2C(=O)OCc3ccccc32)CC1` gave a half-life [1] of 2.8 h, a Ki [2] of 2.1 nM and a bioavailability [3] of 31%. The Ki [5] was 1.4 nM and the AD50 [6] was 0.13 mg/kg.

`COc1cc(OC2CCN(C(C)=O)CC2)ccc1CC(=O)N1CCC(N2C(=O)OCc3ccccc32)CC1` gave a Ki [2] of 36 nM and a Ki [5] of 9.8 nM.
